This is an account of results in US6432956B1, “Method for treatment of sleep apneas” (priority 1990, dated 2002).

One assay relates to respiration in cats. As to conditions: Garner, et al. 1989; cited from earlier work.
Assay [1] deals with patients suffering from obstructive sleep apnea. Put plainly: Clinical experience: single dose of buspirone at bedtime in patients with obstructive sleep apnea. Type of assay: in vivo, human (patients). The text has this: The effectiveness of azapirone treatment of patients suffering from sleep apneas can be exemplified by clinical experience with buspirone. […] One of the most consistent physiological measurements of improvement was a 10 to 20% increase in blood oxygen levels, an indication of improved respiratory efficiency.

The test system of assay [2] is respiration in normal male volunteers. As to conditions: Rapoport, et al. 1988; cited from earlier work.
The mark [3] stands for this setting: single dose at bedtime, patients suffering from obstructive sleep apnea.

`O=C1CC2(CCCC2)CC(=O)N1CCCCN1CCN(c2ncccn2)CC1` [buspirone]: the effect on respiration entry in the assay with respiration in cats is recorded as “stimulatory effect on respiration”. The “effectiveness in treating sleep apneas” value in assay [1] (patients suffering from sleep apneas) is “effective”. For the same compound, in assay [1] (setting [3]), the “episodes of sleep disturbance” value is reported as “marked reduction in episodes of sleep disturbance”, the sleep efficiency result is recorded as “increased sleep efficiency” and the total sleep time result was “gain in total sleep time”. In addition, the effect on respiration entry in assay [2] is recorded as “stimulatory effect on respiration”.
